Patent US20230295118A1 (EnhancedBio Inc., priority 2022, published 2023)

Assays:
[1] = system: mantle cell lymphoma cell (Mino or JeKo-1); experiment: Antiproliferative effect, MTS cell viability assay; format: cell-based; details: 72 h; for IC50: mantle cell lymphoma cell (Mino or JeKo-1), MTS assay, read-out: IC50 (anti-proliferation); for inhibition of cell proliferation of Mino cells: 0-1 μM, result in words
Outline: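 Mino cells treated with compounds at 0, 0.0001, 0.001, 0.01, 0.1, 1 μM for 72 h; palbociclib and abemaciclib as positive controls. Viability by MTS, formazan absorbance read at 490 nm.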

CDK6 = biological target: T1, CDK6 (Homo sapiens, UniProt Q00534); experiment: CDK6 degradation (DC50, Dmax); format: cell-based
T1 construct: endogenous in cells
T1 sequence (Q00534 whole entry): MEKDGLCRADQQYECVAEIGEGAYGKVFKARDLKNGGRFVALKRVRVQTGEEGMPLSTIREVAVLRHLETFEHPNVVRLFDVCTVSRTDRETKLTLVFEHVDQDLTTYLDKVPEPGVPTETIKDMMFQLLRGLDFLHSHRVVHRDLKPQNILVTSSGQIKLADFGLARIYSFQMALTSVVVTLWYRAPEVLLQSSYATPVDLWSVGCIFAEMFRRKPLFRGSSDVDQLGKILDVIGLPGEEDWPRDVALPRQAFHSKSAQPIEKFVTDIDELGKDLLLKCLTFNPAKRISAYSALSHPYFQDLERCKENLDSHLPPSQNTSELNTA

Mino xenograft tumor = experiment: In vivo tumor inhibition efficacy, Mino xenograft; details: NOD/SCID mice, 20 mg/kg via oral gavage for 3 weeks; result in words
Method: Mino cells were obtained from American Type Culture Collection (ATCC, Manassas, VA). Cells were maintained in RPM 1640 (Life Technologies, Grand Island, NY) supplemented with 10% heat-inactivated fetal bovine serum (56° C. for 30 minutes), penicillin (10 000 units/mL; Sigma, St Louis, Mo), streptomycin (10 mg/mL; Sigma), gentamicin (50 mg/mL; Life Technologies), amphotericin B (25 mg/mL; Sigma), and L-glutamine (200 mM, 29.2 mg/mL; Life Technologies), culture, as previously described (29, 30). Mino cells (10 million) were subcutaneously implanted into the flank of NOD/SCID mice. When the average tumor volume reached approximately 300 cubic millimeters (mm^3), the following treatments were administered in cohorts of 5 mice for each treatment: vehicle alone, 20 mg/kg abemaciclib, 20 mg/kg Compound 90, or 20 mg/kg Compound 94 via oral gavage for 3 weeks. Tumor growth was monitored twice weekly by calipers and tumor volume was calculated using the equation: (½ (length×width^2)).

CDK4 = biological target: T2, CDK4 (Homo sapiens, UniProt P11802); experiment: CDK4 degradation (DC50, Dmax); format: cell-based
T2 construct: endogenous in cells
T2 sequence (P11802 whole entry): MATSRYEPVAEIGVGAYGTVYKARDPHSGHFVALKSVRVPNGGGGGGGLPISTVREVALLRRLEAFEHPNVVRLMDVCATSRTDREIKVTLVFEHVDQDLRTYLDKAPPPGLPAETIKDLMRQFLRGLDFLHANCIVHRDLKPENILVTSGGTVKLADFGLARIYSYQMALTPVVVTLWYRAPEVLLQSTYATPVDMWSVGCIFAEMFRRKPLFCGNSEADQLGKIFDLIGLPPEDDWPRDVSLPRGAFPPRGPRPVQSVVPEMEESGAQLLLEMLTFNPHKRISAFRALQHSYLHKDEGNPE

| IC50 [1] [nM] | DC50 (CDK6) [nM] | Dmax (CDK6) [%] | DC50 (CDK4) [nM] | Dmax (CDK4) [%] | SMILES | inhibition of cell proliferation of Mino cells [1] | Mino xenograft tumor growth (Mino xenograft tumor) |
| --- | --- | --- | --- | --- | --- | --- | --- |
| < 50 | < 50 | > 80 | < 50 | > 80 | Cc1nc2c(F)cc(-c3nc(Nc4ccc(CN5CCN(CCNc6ccc7c(c6)C(=O)N(C6CCC(=O)NC6=O)C7=O)CC5)cn4)ncc3F)cc2n1C(C)C (centres unmarked) [Compound 90, 2-(2,6-dioxopiperidin-3-yl)-5-((2-(4-((6-((5-fluoro-4-(4-fluoro-1-isopropyl-2-methyl-1H-benzo[d]imidazol-6-yl)pyrimidin-2-yl)amino)pyridin-3-yl)methyl)piperazin-1-yl)ethyl)amino) isoindoline-1,3-dione] | dose-dependent inhibition of cell proliferation | inhibiting Mino xenograft tumor growth |
| < 50 | < 50 | > 80 | < 50 | > 80 | Cc1nc2c(F)cc(-c3nc(Nc4ccc(CN5CCN(CC6CN(c7ccc8c(c7)C(=O)N(C7CCC(=O)NC7=O)C8=O)C6)CC5)cn4)ncc3F)cc2n1C(C)C (centres unmarked) [Compound 94, 2-(2,6-dioxopiperidin-3-yl)-5-(3-((4-((6-((5-fluoro-4-(4-fluoro-1-isopropyl-2-methyl-1H-benzo[d]imidazol-6-yl)pyrimidin-2-yl)amino)pyridin-3-yl)methyl)piperazin-1-yl)methyl)azetidin-1-yl)isoindoline-1,3-dione] | dose-dependent inhibition of cell proliferation | inhibiting Mino xenograft tumor growth |
